One experiment addresses T1, glucagon receptor (GCGR) (Homo sapiens, UniProt P47871).
T1 construct: expressed in transfected cells; host or cells: CHO-K1 cells overexpressing GCGR (membrane fractions)
Description: I125-glucagon binding assay (competition, GCGR membrane fractions). The essentials:
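Membranes from CHO-K1 cells overexpressing GCGR, 7.5 μg/well in 50 mM Tris pH 7.4 with 0.5% BSA, were preincubated 5 min with serially diluted compounds, then given 0.0625 nM final I^125-glucagon for 30 min at 25° C. Bound label was filtered on PEI-coated GF/B and counted; IC50 by non-linear regression.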

The target of experiment [1] is T2, glucagon receptor (GCGR) overexpressed CHO-K1 cells or human primary hepatocytes (Homo sapiens, UniProt P47871).
T2 construct: expressed in transfected cells; host or cells: GCGR overexpressed CHO-K1 cells or human primary hepatocytes (endogenous receptor)
Description: Glucagon cAMP inhibition assay (Cisbio cAMP Dynamic 2 HTRF). It is filed as cell-based. A digest of the protocol: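 GCGR-overexpressing CHO-K1 cells or human primary hepatocytes in HBSS with 0.1% BSA and 800 nM IBMX, pre-incubated 30 min with serially diluted compounds (1% DMSO final), then stimulated 30 min at room temperature with glucagon at its EC50. cAMP measured by HTRF after 60 min lysis; IC50 by non-linear regression.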

[2] abbreviates: competition with I125-glucagon 0.0625 nM, membrane fractions of GCGR overexpressed CHO-K1 cells.
Setting [3] is: inhibition of glucagon (EC50 concentration) induced cAMP production.

This note sets out measurements from US11384060B2, “Amide compounds and use thereof” (ALPHALA CO., LTD., priority 2017, dated 2022).

Like-named read-outs stand apart in the source and are kept apart here.

T1 sequence (P47871 26-477): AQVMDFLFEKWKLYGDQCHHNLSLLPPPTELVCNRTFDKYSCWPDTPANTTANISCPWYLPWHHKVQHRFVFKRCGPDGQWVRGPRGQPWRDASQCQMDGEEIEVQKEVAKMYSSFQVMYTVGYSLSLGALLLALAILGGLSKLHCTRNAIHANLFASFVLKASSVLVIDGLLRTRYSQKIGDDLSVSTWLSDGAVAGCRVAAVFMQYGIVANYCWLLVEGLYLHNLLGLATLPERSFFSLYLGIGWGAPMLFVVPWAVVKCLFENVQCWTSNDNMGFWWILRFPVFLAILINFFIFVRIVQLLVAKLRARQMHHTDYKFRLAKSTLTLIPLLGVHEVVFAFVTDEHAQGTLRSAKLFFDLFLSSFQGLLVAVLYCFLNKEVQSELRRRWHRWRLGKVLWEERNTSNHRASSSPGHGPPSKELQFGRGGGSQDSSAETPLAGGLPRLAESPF
T2 sequence (P47871 26-477): as above

With `CC(C)CC[C@@H](Cc1ccc(-c2ccc(C(F)(F)F)cc2)cc1)Nc1ccc(C(=O)NCCC(=O)O)cc1` [Compound 19-10, (S)-3-(4-((5-methyl-1-(4′-(trifluoromethyl)-[1,1′-biphenyl]-4-yl)hexan-2-yl)amino)benzamido)propanoic Acid], on glucagon receptor (GCGR), the IC50 (commonly the concentration at which inhibition is half-maximal) was determined as 0.195 µM. Further, the “IC50 cAMP” value in experiment [1] turned out to be 373 nM.
On glucagon receptor (GCGR) (setting [2]), `CCOC(=O)CCNC(=O)c1ccc(N[C@H](COc2ccc(-c3cc4ccccc4o3)cc2)C(C)C)cc1` [Compound 1-1, Ethyl(S)-3-(4-((1-(4-(benzofuran-2-yl)phenoxy)-3-methylbutan-2-yl)amino)benzamido) propanoate] showed an IC50 of 0.803 µM. The “IC50 cAMP” value in experiment [1] (setting [3]) is 1177 nM.
As to `Cc1cc(OC[C@@H](Nc2ccc(C(=O)NCCC(=O)O)cc2)C(C)C)cc(C)c1-c1ccc(C(C)(C)C)cc1` [Compound 2-5, (S)-3-(4-((1-((4′-(tert-butyl)-2,6-dimethyl-[1,1′-biphenyl]-4-yl)oxy)-3-methylbutan-2-yl)amino)benzamido)propanoic Acid], on glucagon receptor (GCGR) (setting [2]), the IC50 was found to be 0.347 µM. Further, the “IC50 cAMP” value in experiment [1] (setting [3]) is 352 nM.
For the compound `CC(C)NC(=O)[C@@H](Cc1ccc(-c2cc3ccccc3o2)cc1)Nc1ccc(C(=O)NCCC(=O)O)cc1` [Compound 24-22, (R)-3-(4-((3-(4-(benzofuran-2-yl)phenyl)-1-(isopropylamino)-1-oxopropan-2-yl)amino)benzamido)propanoic Acid], at glucagon receptor (GCGR), the IC50 was determined as 17.6 µM. Further, the “IC50 cAMP” value in experiment [1] is recorded as 9522 nM.
The compound `CC(C)C[C@@H](COc1ccc(-c2ccc(C(F)(F)F)cc2F)cn1)Nc1ccc(C(=O)NCCC(=O)O)cc1` [Compound 15-16, (S)-3-(4-((1-((5-(2-fluoro-4-(trifluoromethyl)phenyl)pyridin-2-yl)oxy)-4-methylpentan-2-yl)amino)benzamido)propanoic Acid] registered an IC50 on glucagon receptor (GCGR) of 0.669 µM. Moreover, the “IC50 cAMP” value in experiment [1] amounted to 999 nM.
`CC(C)C[C@@H](Nc1ccc(C(=O)NCCC(=O)O)cc1)C(=O)Nc1ccc(-c2cc3ccccc3o2)cc1` [Compound 24-2, (R)-3-(4-((1-((4-(benzofuran-2-yl)phenyl)amino)-4-methyl-1-oxopentan-2-yl)amino)benzamido)propanoic Acid] returned an IC50 on glucagon receptor (GCGR) of 0.311 µM. Moreover, the “IC50 cAMP” value in experiment [1] came out at 598.6 nM.
On to `CCCC[C@@H](COc1ccc(-c2ccc(C(F)(F)F)cc2)c(F)c1)Nc1ccc(C(=O)NCCC(=O)O)cc1` [Compound 8-18, (S)-3-(4-((1-((2-fluoro-4′-(trifluoromethyl)-[1,1′-biphenyl]-4-yl)oxy)hexan-2-yl)amino)benzamido)propanoic Acid], for which the IC50 at glucagon receptor (GCGR) (setting [2]) is 0.158 µM. The “IC50 cAMP” value in experiment [1] (setting [3]) is on record as 153.5 nM.
Consider `CCCC[C@@H](COc1ccc(-c2cc3ccccc3o2)c(Cl)c1)Nc1ccc(C(=O)NCc2nnn[nH]2)cc1` [Compound 3-11, (S)—N-((1H-tetrazol-5-yl)methyl)-4-((1-(4-(benzofuran-2-yl)-3-chlorophenoxy)hexan-2-yl)amino)benzamide], for which the IC50 at glucagon receptor (GCGR) (setting [2]) came out at 0.149 µM. In addition, the “IC50 cAMP” value in experiment [1] (setting [3]) came out at 672.8 nM.
`CC(C)[C@@H](COc1ccc(-c2cc3ccccc3o2)c(Cl)c1)Nc1ccc(C(=O)NC[C@@H](O)C(=O)O)cc1` [Compound 3-6, (R)-3-(4-(((S)-1-(4-(benzofuran-2-yl)-3-chlorophenoxy)-3-methylbutan-2-yl)amino)benzamido)-2-hydroxypropanoic Acid] yielded an IC50 at glucagon receptor (GCGR) (setting [2]) of 0.184 µM. For the same compound, in experiment [1] (setting [3]), the “IC50 cAMP” value was 9291 nM.
As for `CCCC[C@@H](COc1ccc(-c2ccc(Cl)cc2Cl)cc1)Nc1ccc(C(=O)NCCC(=O)O)cc1` [Compound 1-17, (S)-3-(4-((1-((2′,4′-dichloro-[1,1′-biphenyl]-4-yl)oxy)hexan-2-yl)amino)benzamido)propanoic Acid], on glucagon receptor (GCGR) (setting [2]), the IC50 is 0.034 µM. Also, the “IC50 cAMP” value in experiment [1] (setting [3]) turned out to be 864.4 nM.
On to `CC(C)[C@@H](COc1ccc(-c2cc3ccccc3o2)nc1)Nc1ccc(C(=O)NCCC(=O)O)cn1` [Compound 11-2, (S)-3-(6-((1-((6-(benzofuran-2)pyridin-3-yl)oxy)-3-methylbutan-2-yl)amino)nicotinamido)propanoic Acid], for which, on glucagon receptor (GCGR) (setting [2]), the IC50 stood at 0.926 µM. Moreover, the “IC50 cAMP” value in experiment [1] (setting [3]) is given as 14398 nM.
As to `CCOC(=O)CCNC(=O)c1ccc(N[C@H](Cc2ccccc2)C(=O)Nc2ccc(C(F)(F)F)cc2)cc1` [Compound 24-3, Ethyl (R)-3-(4-((1-oxo-3-phenyl-1-((4-(trifluoromethyl)phenyl)amino)propan-2-yl)amino)benzamido)propanoate], the IC50 at glucagon receptor (GCGR) (uM) is more than 10 µM. In addition, the “IC50 cAMP” value in experiment [1] stood at 208 nM.
On glucagon receptor (GCGR) (setting [2]), `CC(C)[C@@H](COc1ccc(-c2cn3ccccc3n2)cc1)Nc1ccc(C(=O)NCCC(=O)O)cc1` [Compound 1-39, (S)-3-(4-((1-(4-(imidazo[1,2-a]pyridin-2-yl)phenoxy)-3-methylbutan-2-yl)amino)benzamido)propanoic Acid] came in with an IC50 of 3.81 µM. In addition, the “IC50 cAMP” value in experiment [1] (setting [3]) is reported as 17895 nM.
With `CCOC(=O)CCNC(=O)c1ccc(N[C@H](Cc2ccc(-c3ccc(C(C)(C)C)cc3)cc2)C(=O)Nc2ccc(C(F)(F)F)cc2)cc1` [Compound 24-15, Ethyl (R)-3-(4-((3-(4′-(tert-butyl)-[1,1′-biphenyl]-4-yl)-1-oxo-1-((4-(trifluoromethyl)phenyl)amino)propan-2-yl)amino)benzamido)propanoate], the IC50 at glucagon receptor (GCGR) came to 0.578 µM. In experiment [1], the “IC50 cAMP” value is listed as 7988 nM.
`CC[C@H](C)[C@@H](COc1ccc(-c2ccc(Cl)cc2Cl)cc1)Nc1cnc(C(=O)NCCC(=O)O)cn1` [Compound 9-2, 3-(5-(((2S,3 S)-1-((2′,4′-dichloro-[1,1′-biphenyl]-4-yl)oxy)-3-methylpentan-2-yl)amino)pyrazine-2-carboxamido)propanoic Acid]: the IC50 at glucagon receptor (GCGR) (setting [2]) is 0.363 µM. In experiment [1] (setting [3]), the “IC50 cAMP” value worked out at 427 nM.
For `CC(C)[C@@H](COc1ccc(-c2ccc(F)cc2F)nn1)Nc1ccc(C(=O)NCCC(=O)O)cc1` [Compound 17-11, (S)-3-(4-((1-((6-(2,4-difluorophenyl)pyridazin-3-yl)oxy)-3-methylbutan-2-yl)amino)benzamido)propanoic Acid], in that order: 1.01 µM and more than 30000 nM.
In turn, `CC(C)(C)c1ccc(-c2ccc(OC[C@@H](Nc3ccc(C(=O)NC[C@@H](O)C(=O)O)cc3)c3ccccc3)nc2)cc1` [Compound 15-6, (R)-3-(4-(((S)-2-((5-(4-(tert-butyl)phenyl)pyridin-2-yl)oxy)-1-phenylethyl)amino)benzamido)-2-hydroxypropanoic Acid] displayed an IC50 at glucagon receptor (GCGR) of 0.172 µM. Further, the “IC50 cAMP” value in experiment [1] is more than 30000 nM.
`O=C(O)CCNC(=O)c1ccc(NC(COc2ccc(-c3ccc(C(F)(F)F)cc3)cc2)c2ccccc2)cc1` (stereo not drawn) [Compound 1-28, 3-(4-((1-phenyl-2-((4′-(trifluoromethyl)-[1,1′-biphenyl]-4-yl)oxy)ethyl)amino)benzamido)propanoic Acid]: the IC50 on glucagon receptor (GCGR) (setting [2]) is 0.15 µM. The “IC50 cAMP” value in experiment [1] (setting [3]) was found to be 287.7 nM.
For `CC[C@H](C)[C@@H](COc1ccc(-c2ccc(C(F)(F)F)cc2)c(F)c1)Nc1ccc(C(=O)NCCC(=O)O)cc1` [Compound 8-14, 3-(4-(((2S,3S)-1-((2-fluoro-4′-(trifluoromethyl)-[1,1′-biphenyl]-4-yl)oxy)-3-methylpentan-2-yl)amino)benzamido)propanoic Acid], in that order: 0.251 µM and 250 nM.
On glucagon receptor (GCGR) (setting [2]), `CC(C)(C)[C@@H](COc1ccc(-c2ccc(C(F)(F)F)cc2F)c(F)c1)Nc1ccc(C(=O)NCCC(=O)O)cc1` [Compound 8-23, (S)-3-(4-((1-((2,2′-difluoro-4′-(trifluoromethyl)-[1,1′-biphenyl]-4-yl)oxy)-3,3-dimethylbutan-2-yl)amino)benzamido)propanoic Acid] registered a concentration for half-maximal inhibition (IC50) of 0.081 µM. Also, the “IC50 cAMP” value in experiment [1] (setting [3]) stood at 89.46 nM.
For `CC[C@H](C)[C@@H](COc1ccc(-c2ccc(C(F)(F)F)cc2F)nc1)Nc1ccc(C(=O)NCCC(=O)O)cc1` [Compound 10-14, 3-(4-(((2S,3S)-1-((6-(2-fluoro-4-(trifluoromethyl)phenyl)pyridin-3-yl)oxy)-3-methylpentan-2-yl)amino)benzamido)propanoic Acid], the IC50 on glucagon receptor (GCGR) (setting [2]) was 0.306 µM. Moreover, the “IC50 cAMP” value in experiment [1] (setting [3]) came out at 497.1 nM.
`CC[C@H](C)[C@@H](COc1ccc(-c2ccc(C(F)(F)F)cc2Cl)cn1)Nc1ccc(C(=O)NCCC(=O)O)cc1` [Compound 15-13, 3-(4-(((2S,3S)-1-((5-(2-chloro-4-(trifluoromethyl)phenyl)pyridin-2-yl)oxy)-3-methylpentan-2-yl)amino)benzamido)propanoic Acid] returned an IC50 on glucagon receptor (GCGR) of 0.098 µM. Further, in experiment [1], the “IC50 cAMP” value came out at 123 nM.
As for `CC(C)(C)c1ccc(-c2ccc(OC[C@@H](Nc3ccc(C(=O)NCCC(=O)O)cc3)c3ccccc3)nc2)cc1` [Compound 15-4], the IC50 on glucagon receptor (GCGR) turned out to be 0.626 µM. The “IC50 cAMP” value in experiment [1] is on record as 3241 nM.
As for `CC[C@H](C)[C@@H](COc1ccc(-c2ccc(Cl)cc2Cl)nc1)Nc1ccc(C(=O)NCCC(=O)O)cc1` [Compound 10-15, 3-(4-(((2S,3S)-1-((6-(2,4-dichlorophenyl)pyridin-3-yl)oxy)-3-methylpentan-2-yl)amino)benzamido)propanoic Acid], the IC50 at glucagon receptor (GCGR) (setting [2]) is 0.179 µM. In addition, the “IC50 cAMP” value in experiment [1] (setting [3]) stood at 301 nM.
